The compounds below were run on Gli-luciferase (firefly) reporter in SHh Light II cell line (NIH-3T3), Hedgehog pathway (assay: Light II Assay (SHh-Smo cell-based Gli-luciferase reporter assay)). Settings: rSHh stimulated cells, 24 hours, % inhibition of luciferase signal.
Experimental: The SHh-Smo assay is a cell-based reporter assay in the SHh Light II cell line (NIH-3T3), available through the American Tissue Culture Center (ATCC). […] In addition, this cell line contains a constitutively expressed renilla luciferase reporter (via CMV promoter) which can be used as a readout to detect any non-specific compound effects, including cytotoxicity.
Test compounds were serially diluted in DMSO and 1.5 μL aliquots were transferred to 384-well non-binding plates. Compounds were diluted with 85 μL of assay media (DMEM+0.5% FBS, 5 mM Hepes, 1% NEAA, 1% PenStrep, 0.8% Geneticin). Cell plates were prepared by adding 50 μL of assay media (240 cells/μL) to white TC coated 384-well plates (final cell concentration is 12,000 cells/well). Cell plates were incubated overnight at 37° C.
Media was removed from the cell plates and 30 μL of compound in assay media+rSHh (1.5 μg/well) was added to the cell plates. Plates were incubated at 37° C. for 24 hours. Following overnight incubation, media was aspirated from the cell plates and 20 μL of luciferase media (Bright-glo, Promega) was added to the cell. Cells were incubated for 5 minutes and measured on an Envision™ plate reader (Perkn Elmer) using the luciferase detection protocol. IC50 values were calculated as a percentage inhibition of luciferase signal from rSHh stimulated cells compared to unstimulated cells.

Q: With `Cc1ccc(CN2CCOCC2)cc1NC(=O)c1ccc(Nc2nc(-c3ccccc3)c3ccccc3n2)c(F)c1` [3-fluoro-N-[2-methyl-5-(morpholin-4-ylmethyl)phenyl]-4-[(4-phenylquinazolin-2-yl)amino]benzamide] as the compound, how does the IC50 read?
A: 6.2 nM

Q: How did the IC50 turn out when `Cc1cccc(C)c1NC(=O)c1ccc(Nc2nc(C3CC3)c3ccccc3n2)cc1` [4-[(4-cyclopropylquinazolin-2-yl)amino]-N-(2,6-dimethylphenyl)benzamide] was run?
A: 2.8 nM

Q: `O=C(c1ccccc1)N1CCC(Nc2nc(-c3ccccc3)c3ccccc3n2)CC1` [4-phenyl-N-[1-(phenylcarbonyl)piperidin-4-yl]quinazolin-2-amine] was tested. Which IC50 did it give?
A: 68.4 nM

Q: For `Cc1ccc(CN2CCOCC2)cc1NC(=O)c1ccc(Nc2nc(C(C)C)c3ccccc3n2)cc1` [4-{[4-(1-methylethyl)quinazolin-2-yl]amino}-N-[2-methyl-5-(morpholin-4-ylmethyl)phenyl]benzamide], which IC50 is on record?
A: 17.8 nM

Q: `Cc1cccc(C)c1NC(=O)c1cc(Nc2nc(-c3ccccc3)c3ccccc3n2)c(Cl)s1` [5-chloro-N-(2,6-dimethylphenyl)-4-[(4-phenylquinazolin-2-yl)amino]thiophene-2-carboxamide] was tested. Which IC50 did it give?
A: 166 nM

Q: With `Cc1cccc(C)c1NC(=O)c1ccc(Nc2nc3c(c(-c4ccccc4)n2)CCC3)cc1` [N-(2,6-dimethylphenyl)-4-[(4-phenyl-6,7-dihydro-5H-cyclopenta[d]pyrimidin-2-yl)amino]benzamide] as the compound, how does the IC50 read?
A: 25.8 nM

Q: With `Cc1cccc(C)c1NC(=O)c1ccc(Nc2nc(-c3ccccc3)c3cccnc3n2)cc1` [N-(2,6-dimethylphenyl)-4-[(4-phenylpyrido[2,3-d]pyrimidin-2-yl)amino]benzamide] as the compound, how does the IC50 read?
A: 3.6 nM

Q: For `Cc1cccc(C)c1NC(=O)c1ccc(Nc2nc3c(c(-c4ccccc4)n2)CN(Cc2ccccc2)CC3)cc1` [N-(2,6-dimethylphenyl)-4-{[4-phenyl-6-(phenylmethyl)-5,6,7,8-tetrahydropyrido[4,3-d]pyrimidin-2-yl]amino}benzamide], which IC50 is on record?
A: 156 nM

Q: For `CN1CCc2ccc(NC(=O)c3ccc(Nc4nc(-c5ccccc5)c5ccccc5n4)cc3)cc2C1` [N-(2-methyl-1,2,3,4-tetrahydroisoquinolin-7-yl)-4-[(4-phenylquinazolin-2-yl)amino]benzamide], which IC50 is on record?
A: 5.8 nM

Q: How did the IC50 turn out when `Cc1ccc(CN(C)Cc2ccccc2)cc1NC(=O)c1ccc(Nc2nc(C)c3ccccc3n2)cc1` [N-(2-methyl-5-{[methyl(phenylmethyl)amino]methyl}phenyl)-4-[(4-methylquinazolin-2-yl)amino]benzamide] was run?
A: 3.4 nM

Q: Which IC50 does the source give for `Cc1ccc(C(=O)NCCN(C)C)cc1NC(=O)c1ccc(Nc2nc(-c3ccccc3)c3ccccc3n2)cc1` [N-[2-(dimethylamino)ethyl]-4-methyl-3-[({4-[(4-phenylquinazolin-2-yl)amino]phenyl}carbonyl)amino]benzamide] here?
A: 16.4 nM

Q: For `Cc1ccc(-c2ccn[nH]2)cc1NC(=O)c1ccc(Nc2nc(-c3ccccc3)c3ccccc3n2)cc1` [N-[2-methyl-5-(1H-pyrazol-5-yl)phenyl]-4-[(4-phenylquinazolin-2-yl)amino]benzamide], which IC50 is on record?
A: 6.3 nM

Q: Which IC50 does the source give for `Cc1ccc(OCCN2CCOCC2)cc1NC(=O)c1ccc(Nc2nc(-c3ccccc3)c3ccccc3n2)cc1` [N-{2-methyl-5-[(2-morpholin-4-ylethyl)oxy]phenyl}-4-[(4-phenylquinazolin-2-yl)amino]benzamide] here?
A: 6.2 nM

Q: With `CN(C)Cc1cccc(NC(=O)c2ccc(Nc3nc(-c4ccccc4)c4ccccc4n3)cc2)c1` [N-{3-[(dimethylamino)methyl]phenyl}-4-[(4-phenylquinazolin-2-yl)amino]benzamide] as the compound, how does the IC50 read?
A: 6.1 nM

Q: How did the IC50 turn out when `CCN1CCN(C(=O)c2ccc(C)c(NC(=O)c3ccc(Nc4nc(-c5ccccc5)c5ccccc5n4)cc3)c2)CC1` [N-{5-[(4-ethylpiperazin-1-yl)carbonyl]-2-methylphenyl}-4-[(4-phenylquinazolin-2-yl)amino]benzamide] was run?
A: 23.9 nM

Q: Which IC50 does the source give for `Cc1ccc(CN(C)C)cc1NC(=O)c1ccc(Nc2nc(-c3cccs3)c3ccccc3n2)cc1` [N-{5-[(dimethylamino)methyl]-2-methylphenyl}-4-{[4-(2-thienyl)quinazolin-2-yl]amino}benzamide] here?
A: 21 nM

Reference: patent US8222263B2, “Inhibitors of hedgehog pathway” (Exelixis Patent Company LLC, priority 2007, dated 2012)
